# Test results reported in patent US4011332A, “Hemorrhagic-lesion producing and anticoagulant-containing compositions and their use” (priority 1974, dated 1977).
# Where two headings read alike, the source gives them in different places.
# Tests used:
# Sprague-Dawley rats [1] = experiment: LD5 determination / hemorrhagic stomach and gut lesions after single oral dose; conditions: for LD5: single oral dose, Sprague-Dawley rats, empty stomach; for LD5 (criterion for rat strain to be used): rat strain advisable for the test
# Experimental: A selection of compounds from those suitable for component (b) is, however, made in a simpler manner by determining the LD5 (in mg/kg). […] Determination of the cause of death is effected, e.g., by autopsy of the dead animals.
# The rats were kept in groups of 5 and four animals in plastic cages of the type M III. The room temperature was maintained at approximately 23° C. For determining the lethal doses, as mentioned in the following description, the rats were fed on empty stomachs. The animals received the noted compounds [for example, component (a) or (b) or the composition containing both] in a volume of liquid amounting to 5 ml per kg of body weight of the rat. The administration of the liquid was carried out once using a feeding tube introduced into the oesophagus. The doses of the active substances [component (a), component (b) or the composition] were varied. Component (b) was administered as a sodium salt in aqueous solution, and the number of animals which died within 10 days after administration was noted.
# The lethal doses (LD5, LD50 and LD100 in mg/kg) were determined by simple linear regression, while the limits of trust were determined by the method of Litchfield and Wilcoxon.
# Thereafter autopsy the dead animals to determine the cause of death.
# Sprague-Dawley rats [2] = experiment: animal or person; type: in vivo; conditions: for LD100 (interpolated): component (b) with 2 mg/kg 4-hydroxy-2-oxo-3-(1-phenylpropyl)-2H-chromene, single oral dose, 10 days
# Source text: Note the number of animals which die within 10 days of the respective administrations.
# Sprague-Dawley rats [3] = conditions: for LD50 oral, in combination with component (b) 2 mg/kg: with 2 mg/kg 1-phenyl-3,5-di-(2-thienyl)-4-pyrazole acetic acid; for LD50 oral, in combination with component (b) 1 mg/kg: with 1 mg/kg 1-phenyl-3,5-di-(2-thienyl)-4-pyrazole acetic acid
# Experimental: *Ingestion volume: 5 ml/kg, period of observation: 10 days
# [4] = test system: female Sprague-Dawley rats; experiment: Rodenticidal bait test, mortality in 10 days (Example 12, Table IV); type: in vivo; conditions: one day, 10 days observation
# Source text: Following the rules for the examination of rodenticides against rats and mice (edited by Bundesgeshundheitsamt, Institut fuer Wasser-, Boden- und Lufthygiene, Biologische Bundesanstalt fur Land- und Forstwirtschaft, Staatliches Medizinaluntersuchungsamt, Abt. fuer hygienische Schadlingsbekampfung), female Sprague-Dawley rats weighing about 200 grams, kept in single boxes, were provided with the rodenticidal active substances* alone or in combination (expressed in mg/kg) in 4 grams of bait per rat, i.e. 20 g of bait/kg of body weight. These soft consistent, i.e. not crumbly, baits were prepared from Semmelmehl (i.e. powder prepared by grinding dry white bread) and some water. The rats on an empty stomach were provided with these baits as the only food during one day, tap water was ad libitum.
# * 4-hydroxy-2-oxo-3-(3-oxo-1-phenyl-butyl)-2H-chromene and 1,5-diphenyl-3-(p-chlorophenyl)-4-pyrazole acetic acid
# Thereafter, the animals were provided with usual standard diet Atromine R for the remaining duration of the test.
# The mortality rate was determined during a test period of 10 days.
# [5] = test system: wild rats (Rattus norvegicus and Rattus ratus); experiment: LD100 of combinations in wild rats, single oral dose (Example 3); type: in vivo; conditions: full stomachs, 10 days
# [6] = alone, 5 ml/kg, observation 10 days
Compound,LD5 (Sprague-Dawley rats [1]),LD100 (interpolated) (Sprague-Dawley rats [2]),other results
"CN1C(=O)C(C(=O)Nc2ccc(F)cc2F)c2ccccc21 (stereo not drawn) [P, 1-methyl-2',4'-difluoroxindole-3-carboxanilide]",< 50 mg/kg of body weight,–,–
"COc1ccc(-n2nc(-c3ccccc3)c(CC(=O)O)c2-c2ccccc2)cc1 [H, 3,5-diphenyl-1-(p-methoxyphenyl)-4-pyrazole acetic acid]",< 15 mg/kg of body weight,~ 10.00 mg/kg,–
"O=C1c2ccccc2C(=O)C1c1ccccc1 [2-phenylindandione-(1,3)]",–,–,"LD50 oral, alone (Sprague-Dawley rats [3]; [6]): above 100 mg/kg of body weight; LD50 oral, in combination with component (b) 2 mg/kg (Sprague-Dawley rats [3]; 5 ml/kg, observation 10 days): not less than 50 mg/kg of body weight"
"CN1C(C(=O)Nc2nccs2)=C(O)c2ccccc2S1(=O)=O [L, n-(2-thiazolyl)-4-hydroxy-2-methyl-2H-1,2-benzothiazine-3-carboxamide-1,1-dioxide]",< 50 mg/kg of body weight,≤ 20.00 mg/kg,–
"O=C(O)c1ccccc1O [I, salicylic acid, reference compound]",above 100 mg/kg of body weight,–,–
"CC(=O)Oc1ccccc1C(=O)O [K, acetylsalicylic acid, reference compound]",above 100 mg/kg of body weight,–,–
"O=C(O)Cc1c(-c2ccc(Cl)cc2)nn(-c2ccccc2)c1-c1ccccc1 [B, 1,5-diphenyl-3-(p-chlorophenyl)-4-pyrazole acetic acid]",< 5 mg/kg of body weight,1.5 mg/kg,–
"O=C(O)Cc1c(-c2ccccc2)nn(-c2ccccc2)c1-c1ccccc1 [C, 1,3,5-triphenyl-4-pyrazole acetic acid]",< 5 mg/kg of body weight,3.0 mg/kg,–
"CN1C(O)=C(C(=O)Nc2ccc([N+](=O)[O-])cc2)c2ccccc2S1(=O)=O [R, n-(4-nitrophenyl)-3-hydroxy-2-methyl-2H-1,2-benzothiazine-4-carboxamide-1,1-dioxide]",< 50 mg/kg of body weight,–,–
"O=C(O)Cc1c(-c2cccs2)nn(-c2ccc(Cl)cc2)c1-c1cccs1 [D, 1-(p-chlorophenyl)-3,5-di-(2-thienyl)-4-pyrazole acetic acid]",< 5 mg/kg of body weight,5.0 mg/kg,–
"O=C(O)Cc1c(-c2cccs2)nn(-c2ccccc2Cl)c1-c1cccs1 [M, 1(o-chlorophenyl)-3,5-(2-thienyl)-4-pyrazole acetic acid]",< 15 mg/kg of body weight,10 to 50 mg/kg,–
"CC(=O)CC(c1ccccc1)c1c(O)c2ccccc2oc1=O (stereo not drawn) [Component 1.2, 4-hydroxy-2-oxo-3-(3-oxo-1-phenylbutyl)-2H-chromene]",–,–,"LD50 oral, alone (Sprague-Dawley rats [3]; rat, in vivo, po, 240 h): 7.0 mg/kg of body weight; LD50 oral, in combination with component (b) 1 mg/kg (Sprague-Dawley rats [3]; 5 ml/kg, observation 10 days): 4 mg/kg of body weight; LD50 oral, in combination with component (b) 2 mg/kg (Sprague-Dawley rats [3]; 5 ml/kg, observation 10 days): 0.4 mg/kg of body weight; % of Animals which Died ([4]; Component 1.2 100 mg/kg in bait): 80%; % of Animals which Died ([4]; Component 1.2 200 mg/kg in bait): 80%"
"CCC(c1ccccc1)c1c(O)c2ccccc2oc1=O (stereo not drawn) [Component 1.1, 4-hydroxy-2-oxo-3-(1-phenylpropyl)-2H-chromene, reference compound]",–,–,"LD100 (Sprague-Dawley rats [2]; Rattus norvegicus, po, 240 h, anticoagulant alone, Sprague-Dawley rats): 17 mg/kg; LD50 oral, alone (Sprague-Dawley rats [3]; [6]): 3.0 mg/kg of body weight; LD50 oral, in combination with component (b) 1 mg/kg (Sprague-Dawley rats [3]; 5 ml/kg, observation 10 days): 1.7 mg/kg of body weight; LD50 oral, in combination with component (b) 2 mg/kg (Sprague-Dawley rats [3]; 5 ml/kg, observation 10 days): 0.55 mg/kg of body weight; LD100 ([5]; Rattus norvegicus, 240 h, component (b) 0 mg/kg): 45 mg/kg; LD100, component (a) in combination ([5]; with component (b) 1.5 mg/kg): 4 mg/kg of rat body weight; LD100, component (a) in combination ([5]; with component (b) 2 mg/kg): 3 mg/kg of rat body weight; LD100, component (a) in combination ([5]; with component (b) 3 mg/kg): 2 mg/kg of rat body weight"
"O=C(O)Cc1c(-c2ccco2)nn(-c2ccccc2)c1-c1ccco1 [O, 1-phenyl-3,5-di-(2-furyl)-4-pyrazole acetic acid]",< 50 mg/kg of body weight,~ 50 mg/kg,–
"O=C(O)Cc1c(-c2cccs2)nn(-c2ccccc2)c1-c1cccs1 [A, 1-phenyl-3,5-di-(2-thienyl)-4-pyrazole acetic acid]",< 5 mg/kg of body weight,~ 2.0 mg/kg,"LD100, component (b) ([5]; component (a) 0 mg/kg): 7 mg/kg of rat body weight; LD100, component (b) in combination ([5]; with component (a) 2 mg/kg): 3 mg/kg of rat body weight; LD100, component (b) in combination ([5]; with component (a) 3 mg/kg): 2 mg/kg of rat body weight; LD100, component (b) in combination ([5]; with component (a) 4 mg/kg): 1.5 mg/kg of rat body weight"
"COc1ccc2c(c1)c(CC(=O)O)c(C)n2C(=O)c1ccc(Cl)cc1 [E, reference compound]",< 15 mg/kg of body weight,7.5 mg/kg,LD5 (criterion for rat strain to be used) (Sprague-Dawley rats [1]): approximately 7 mg/kg of body weight
"O=C(O)Cc1c(C2CCCCC2)nn(-c2ccccc2)c1-c1ccccc1 [F, 3-cyclohexyl-1,5-diphenyl-4-pyrazole acetic acid]",< 15 mg/kg of body weight,7.5 mg/kg,–
"CCCCC1C(=O)N(c2ccccc2)N(c2ccccc2)C1=O [phenylbutazone, reference compound]",–,–,LD5 (criterion for rat strain to be used) (Sprague-Dawley rats [1]): 600 mg/kg of body weight
"CC(C(=O)O)c1ccc(C2CCCCC2)c(Cl)c1 (single isomer, unassigned) [N, d(+)-3-chloro-4-cyclohexyl-α-methyl-phenylacetic acid]",< 15 mg/kg of body weight,5 to 10 mg/kg,–
"COc1ccc(-c2c(CC(=O)O)c(-c3ccccc3)nn2-c2ccccc2)cc1 [G, 1,3-diphenyl-5-(p-methoxyphenyl)-4-pyrazole acetic acid]",< 15 mg/kg of body weight,~ 10.0 mg/kg,–
"CC(C)(C)C(=O)C1C(=O)c2ccccc2C1=O [Component 1.4, 2-pivaloyl-1,3-indandione]",–,–,"LD50 oral, alone (Sprague-Dawley rats [3]; [6]): above 5 mg/kg of body weight; LD50 oral, in combination with component (b) 2 mg/kg (Sprague-Dawley rats [3]; 5 ml/kg, observation 10 days): above 1 mg/kg of body weight"
"CN1C(O)=C(C(=O)Nc2ccc(Br)cc2)c2ccccc2S1(=O)=O [Q, n-(4-bromophenyl)-3-hydroxy-2-methyl-2H-1,2-benzothiazine-4-carboxamide-1,1-dioxide]",< 50 mg/kg of body weight,–,–
"CC(=O)CC(c1ccc([N+](=O)[O-])cc1)c1c(O)c2ccccc2oc1=O (stereo not drawn) [Component 1.6, 4-hydroxy-2-oxo-3-[3-oxo-1-(4-nitrophenyl)butyl]-2H-chromene]",–,–,"LD50 oral, alone (Sprague-Dawley rats [3]; [6]): above 100 mg/kg of body weight; LD50 oral, in combination with component (b) 2 mg/kg (Sprague-Dawley rats [3]; 5 ml/kg, observation 10 days): 1.3 mg/kg of body weight"
